Laboratory results as given in patent EP4745135A1 (Gluetacs Therapeutics (Shanghai) Co., Ltd., priority 2023, dated 2025).

How the values were obtained:
IKZF3 = biological target: T1, IKZF3 (Homo sapiens, UniProt Q96SW2+Q9UKT9); assay: Western blot, degradation of substrate protein in hPBMCs; format: cell-based
T1 construct: effects of the compounds of the present disclosure on the expression of target proteins in cells; endogenous in cells; host or cells: human PBMCs (Milecell Biotechnologies)

IKZF1 = biological target: T2, IKZF1 (Homo sapiens, UniProt Q13422+Q96SW2); assay: as above; format: cell-based
T2 construct: effects of the compounds of the present disclosure on the expression of target proteins in cells; endogenous in cells; host or cells: human PBMCs (Milecell Biotechnologies)

IKZF2 = biological target: T3, IKZF2 (Homo sapiens, UniProt Q96SW2+Q9UKS7); assay: as above; format: cell-based
T3 construct: effects of the compounds of the present disclosure on the expression of target proteins in cells; endogenous in cells; host or cells: human PBMCs (Milecell Biotechnologies)

CK1α = biological target: T4, CK1α (Homo sapiens, UniProt P48729+Q96SW2); assay: as above; format: cell-based
T4 construct: effects of the compounds of the present disclosure on the expression of target proteins in cells; endogenous in cells; host or cells: human PBMCs (Milecell Biotechnologies)

WEE1 = biological target: T5, WEE1 (Homo sapiens, UniProt P30291+Q96SW2); assay: as above; format: cell-based
T5 construct: effects of the compounds of the present disclosure on the expression of target proteins in cells; endogenous in cells; host or cells: human PBMCs (Milecell Biotechnologies)

GSPT1 = assay: as above; format: cell-based, Human
[1] = biological target: T6, human Cereblon WT GST-tagged protein (Homo sapiens, UniProt Q96SW2); assay: CRBN-binding affinity, HTRF (CEREBLON BINDING kit); conditions: for inhibition at 0.5 µM: read-out: Inhibition Rate at 0.5 µM (%); for inhibition at 2 µM: read-out: Inhibition Rate at 2 µM (%)
T6 construct: purchased CISBIO 64BDCRBNPEH

[2] = 24 hours treatment, compounds at 50 nM and 500 nM (concentration behind the class not stated)
[3] = Western blot, 24 hours of compound treatment, compounds tested at 50 nM and 500 nM (concentration for the table not stated)

T3 sequence (Q9UKS7 whole entry): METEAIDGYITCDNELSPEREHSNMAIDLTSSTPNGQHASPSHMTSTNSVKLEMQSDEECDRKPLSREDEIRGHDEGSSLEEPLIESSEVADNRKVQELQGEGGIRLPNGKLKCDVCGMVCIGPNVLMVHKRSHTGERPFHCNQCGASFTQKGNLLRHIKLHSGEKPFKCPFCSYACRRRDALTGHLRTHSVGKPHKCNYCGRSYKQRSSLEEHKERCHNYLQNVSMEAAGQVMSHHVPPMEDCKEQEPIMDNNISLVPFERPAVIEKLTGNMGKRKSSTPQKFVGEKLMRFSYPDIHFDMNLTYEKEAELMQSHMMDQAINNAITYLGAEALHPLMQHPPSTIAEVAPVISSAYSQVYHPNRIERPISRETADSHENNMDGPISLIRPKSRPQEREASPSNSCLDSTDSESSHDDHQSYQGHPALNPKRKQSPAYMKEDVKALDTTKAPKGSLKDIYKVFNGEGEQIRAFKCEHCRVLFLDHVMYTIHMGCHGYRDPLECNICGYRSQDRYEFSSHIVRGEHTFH
T3 sequence (Q96SW2 whole entry): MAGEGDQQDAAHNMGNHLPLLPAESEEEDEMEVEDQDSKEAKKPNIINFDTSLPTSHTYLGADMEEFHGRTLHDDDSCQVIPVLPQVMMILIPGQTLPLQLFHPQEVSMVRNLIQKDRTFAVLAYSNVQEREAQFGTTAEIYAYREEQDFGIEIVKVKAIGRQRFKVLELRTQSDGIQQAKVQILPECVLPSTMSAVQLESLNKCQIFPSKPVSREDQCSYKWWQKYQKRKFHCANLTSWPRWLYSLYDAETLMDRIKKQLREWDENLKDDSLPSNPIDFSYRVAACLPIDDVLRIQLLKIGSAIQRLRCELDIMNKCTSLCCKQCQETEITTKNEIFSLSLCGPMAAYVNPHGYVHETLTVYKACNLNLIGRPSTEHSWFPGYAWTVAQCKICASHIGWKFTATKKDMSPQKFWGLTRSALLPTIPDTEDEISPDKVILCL
T3 sequence (Q16531 whole entry partner): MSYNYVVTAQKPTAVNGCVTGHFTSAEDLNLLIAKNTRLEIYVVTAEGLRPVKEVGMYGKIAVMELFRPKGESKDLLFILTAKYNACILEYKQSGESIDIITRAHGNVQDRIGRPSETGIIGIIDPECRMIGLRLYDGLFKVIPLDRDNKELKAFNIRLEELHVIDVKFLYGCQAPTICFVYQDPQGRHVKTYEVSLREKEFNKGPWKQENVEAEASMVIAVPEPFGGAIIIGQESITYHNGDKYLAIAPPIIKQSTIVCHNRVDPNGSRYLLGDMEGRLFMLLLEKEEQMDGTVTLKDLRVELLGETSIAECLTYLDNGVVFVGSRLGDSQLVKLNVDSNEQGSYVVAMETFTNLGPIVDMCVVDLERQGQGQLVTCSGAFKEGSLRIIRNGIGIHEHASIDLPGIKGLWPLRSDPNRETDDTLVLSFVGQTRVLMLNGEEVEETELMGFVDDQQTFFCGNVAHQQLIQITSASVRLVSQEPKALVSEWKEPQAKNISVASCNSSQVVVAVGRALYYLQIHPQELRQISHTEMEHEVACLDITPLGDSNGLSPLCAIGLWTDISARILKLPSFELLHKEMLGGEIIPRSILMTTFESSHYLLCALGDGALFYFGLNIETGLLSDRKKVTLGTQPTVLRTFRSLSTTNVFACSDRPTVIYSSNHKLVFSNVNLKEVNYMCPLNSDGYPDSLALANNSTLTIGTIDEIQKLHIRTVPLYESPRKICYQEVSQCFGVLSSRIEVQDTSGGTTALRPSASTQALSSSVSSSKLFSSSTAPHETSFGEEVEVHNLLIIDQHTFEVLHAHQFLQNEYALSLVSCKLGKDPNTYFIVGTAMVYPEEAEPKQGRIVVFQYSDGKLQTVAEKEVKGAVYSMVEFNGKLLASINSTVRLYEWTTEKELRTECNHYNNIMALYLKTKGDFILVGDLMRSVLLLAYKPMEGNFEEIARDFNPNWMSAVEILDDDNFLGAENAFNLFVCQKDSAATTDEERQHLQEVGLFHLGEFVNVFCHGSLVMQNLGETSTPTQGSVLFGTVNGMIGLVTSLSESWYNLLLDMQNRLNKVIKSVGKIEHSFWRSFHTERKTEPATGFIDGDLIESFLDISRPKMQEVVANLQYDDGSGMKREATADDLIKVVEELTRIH
T1 sequence (Q9UKT9 whole entry): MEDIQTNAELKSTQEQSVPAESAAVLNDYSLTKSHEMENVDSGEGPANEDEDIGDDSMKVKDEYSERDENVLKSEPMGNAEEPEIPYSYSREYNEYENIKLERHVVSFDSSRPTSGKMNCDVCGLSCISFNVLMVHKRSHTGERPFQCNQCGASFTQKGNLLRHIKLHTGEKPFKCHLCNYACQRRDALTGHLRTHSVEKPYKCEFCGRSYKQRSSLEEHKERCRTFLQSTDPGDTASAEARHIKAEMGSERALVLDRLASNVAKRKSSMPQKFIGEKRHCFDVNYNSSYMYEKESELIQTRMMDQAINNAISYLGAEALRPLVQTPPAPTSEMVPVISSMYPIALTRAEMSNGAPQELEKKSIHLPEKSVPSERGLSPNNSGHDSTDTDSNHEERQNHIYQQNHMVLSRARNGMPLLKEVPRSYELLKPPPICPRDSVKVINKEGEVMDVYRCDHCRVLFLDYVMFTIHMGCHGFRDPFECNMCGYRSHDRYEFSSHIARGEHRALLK
T1 sequence (Q96SW2 whole entry): as the sequence (Q96SW2 whole entry) above
T1 sequence (Q16531 whole entry partner): as the sequence (Q16531 whole entry partner) above
T5 sequence (P30291 whole entry): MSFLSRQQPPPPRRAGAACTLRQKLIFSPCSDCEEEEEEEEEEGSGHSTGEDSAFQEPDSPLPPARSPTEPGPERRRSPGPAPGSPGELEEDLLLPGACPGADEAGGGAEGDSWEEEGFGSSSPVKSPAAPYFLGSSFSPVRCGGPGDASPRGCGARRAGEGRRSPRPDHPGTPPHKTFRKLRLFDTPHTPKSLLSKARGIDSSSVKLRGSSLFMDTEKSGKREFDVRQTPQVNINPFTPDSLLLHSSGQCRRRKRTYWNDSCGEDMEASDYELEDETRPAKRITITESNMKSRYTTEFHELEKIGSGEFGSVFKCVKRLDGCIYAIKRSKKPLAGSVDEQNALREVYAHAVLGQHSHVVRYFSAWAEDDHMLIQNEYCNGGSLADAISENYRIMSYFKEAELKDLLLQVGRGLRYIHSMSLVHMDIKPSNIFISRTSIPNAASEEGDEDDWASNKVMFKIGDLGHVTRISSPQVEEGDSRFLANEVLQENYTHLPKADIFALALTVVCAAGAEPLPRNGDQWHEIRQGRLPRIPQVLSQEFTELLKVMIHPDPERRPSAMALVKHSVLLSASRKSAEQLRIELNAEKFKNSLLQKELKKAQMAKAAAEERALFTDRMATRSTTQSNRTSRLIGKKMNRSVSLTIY
T5 sequence (Q96SW2 whole entry): as the sequence (Q96SW2 whole entry) above
T5 sequence (Q16531 whole entry partner): as the sequence (Q16531 whole entry partner) above
T2 sequence (Q13422 whole entry): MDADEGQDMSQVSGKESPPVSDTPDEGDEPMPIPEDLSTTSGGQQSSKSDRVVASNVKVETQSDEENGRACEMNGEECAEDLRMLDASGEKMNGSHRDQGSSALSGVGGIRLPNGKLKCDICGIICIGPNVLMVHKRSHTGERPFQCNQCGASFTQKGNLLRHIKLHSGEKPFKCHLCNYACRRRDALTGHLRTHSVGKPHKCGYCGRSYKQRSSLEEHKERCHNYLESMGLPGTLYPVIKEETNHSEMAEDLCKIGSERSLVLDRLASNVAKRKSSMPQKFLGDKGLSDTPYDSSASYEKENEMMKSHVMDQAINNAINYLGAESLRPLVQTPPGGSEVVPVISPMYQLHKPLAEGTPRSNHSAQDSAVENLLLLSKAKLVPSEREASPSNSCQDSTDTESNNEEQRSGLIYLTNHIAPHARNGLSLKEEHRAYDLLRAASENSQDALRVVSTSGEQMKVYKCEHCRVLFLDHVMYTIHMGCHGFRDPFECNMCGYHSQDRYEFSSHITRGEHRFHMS
T2 sequence (Q96SW2 whole entry): as the sequence (Q96SW2 whole entry) above
T2 sequence (Q16531 whole entry partner): as the sequence (Q16531 whole entry partner) above
T4 sequence (P48729 whole entry): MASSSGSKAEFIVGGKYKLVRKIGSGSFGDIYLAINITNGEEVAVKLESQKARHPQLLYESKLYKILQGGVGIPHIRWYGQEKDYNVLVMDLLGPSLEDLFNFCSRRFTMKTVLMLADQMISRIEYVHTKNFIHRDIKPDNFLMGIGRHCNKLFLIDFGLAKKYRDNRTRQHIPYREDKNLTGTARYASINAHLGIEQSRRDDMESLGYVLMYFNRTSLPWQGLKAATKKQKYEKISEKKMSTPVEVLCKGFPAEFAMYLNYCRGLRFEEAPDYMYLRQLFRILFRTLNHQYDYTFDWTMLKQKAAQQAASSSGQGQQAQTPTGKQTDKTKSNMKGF
T4 sequence (Q96SW2 whole entry): as the sequence (Q96SW2 whole entry) above
T4 sequence (Q16531 whole entry partner): as the sequence (Q16531 whole entry partner) above
T6 sequence (Q96SW2 whole entry): as the sequence (Q96SW2 whole entry) above

SMILES | IKZF3 substrate protein remaining % (IKZF3; [2]) | IKZF 1 substrate protein remaining % (IKZF1; [2]) | IKZF2 substrate protein remaining % (IKZF2; [2]) | CK1α substrate protein remaining % (CK1α; [2]) | Wee1 substrate protein remaining % (WEE1; [2]) | GSPT1 substrate protein remaining % (GSPT1; [2]) | inhibition at 0.5 µM [1] | inhibition at 2 µM [1] | IKZF3 substrate protein remaining % (IKZF3; [3]) | IKZF 1 substrate protein remaining % (IKZF1; [3]) | IKZF2 substrate protein remaining % (IKZF2; [3]) | CK1α substrate protein remaining % (CK1α; [3]) | Wee1 substrate protein remaining % (WEE1; [3]) | GSPT1 substrate protein remaining % (GSPT1; [3])
O=C1CCC(N2Cc3c(CN4CCC(c5cccc(F)c5F)CC4)cccc3C2=S)C(=O)N1 (centres unmarked) [GT-08322, 3-(4-((4-(2,3-difluorophenyl)piperidin-1-yl)methyl)-1-thioxoisoindolin-2-yl)piperidine-2,6-dione] | B (80%< substrate protein remaining %≤ 100%) | B (80%< substrate protein remaining %≤ 100%) | A (0% ≤ substrate protein remaining % ≤ 80%) | A (0% ≤ substrate protein remaining % ≤ 80%) | A (0% ≤ substrate protein remaining % ≤ 80%) | A (0% ≤ substrate protein remaining % ≤ 80%) | 30 to 40% | 53 to 60% |  |  |  |  |  | 
O=C1CCC(N2Cc3c(CN4CCc5sccc5C4)cccc3C2=S)C(=O)N1 (centres unmarked) [GT-08333, 3-(4-((6,7-dihydrothieno[3,2-c]pyridin-5(4H)-yl)methyl)-1-thioxoisoindolin-2-yl)piperidine-2,6-dione] | B (80%< substrate protein remaining %≤ 100%) | B (80%< substrate protein remaining %≤ 100%) | B (80%< substrate protein remaining %≤ 100%) | A (0% ≤ substrate protein remaining % ≤ 80%) | A (0% ≤ substrate protein remaining % ≤ 80%) | A (0% ≤ substrate protein remaining % ≤ 80%) | 60 to 80% | 80 to 100% |  |  |  |  |  | 
O=C1CCC(N2Cc3cc(CN4CCN(c5ccncc5)CC4)ccc3C2=S)C(=O)N1 (centres unmarked) [GT-09233, 3-(5-((4-(pyridin-4-yl)piperazin-1-yl)methyl)-1-thioxoisoindolin-2-yl)piperidine-2,6-dione] |  |  |  |  |  |  | 60 to 80% | 80 to 100% | A (0% ≤ substrate protein remaining % ≤ 80%) | A (0% ≤ substrate protein remaining % ≤ 80%) | A (0% ≤ substrate protein remaining % ≤ 80%) | A (0% ≤ substrate protein remaining % ≤ 80%) | A (0% ≤ substrate protein remaining % ≤ 80%) | A (0% ≤ substrate protein remaining % ≤ 80%)
O=C1CCC(N2Cc3c(CN4CCN(c5c(Cl)cncc5Cl)CC4)cccc3C2=S)C(=O)N1 (centres unmarked) [GT-08805, 3-(4-((4-(3,5-dichloropyridin-4-yl)piperazin-1-yl)methyl)-1-thioxoisoindolin-2-yl)piperidine-2,6-dione] |  |  |  |  |  |  | 60 to 80% | 60 to 80% | B (80%< substrate protein remaining %≤ 100%) | B (80%< substrate protein remaining %≤ 100%) | B (80%< substrate protein remaining %≤ 100%) | B (80%< substrate protein remaining %≤ 100%) | A (0% ≤ substrate protein remaining % ≤ 80%) | B (80%< substrate protein remaining %≤ 100%)
